12 compounds from patent US12539292B2, “BRM targeting compounds and associated methods of use” (Arvinas Operations, Inc., priority 2018, dated 2026) can be followed below.

Usually DC50 stands for the midpoint of the concentration-degradation curve. As usually defined, the Dmax is the greatest extent of degradation seen.

Read-outs that look alike come from different tables or passages of the source.

The target of this assay is T1, BRM (Homo sapiens, UniProt P51531).
T1 construct: In-Cell Western Screen of BRM Degradation in SW1573 Cells; endogenous in cells; host or cells: SW1573
T1 sequence (P51531 whole entry): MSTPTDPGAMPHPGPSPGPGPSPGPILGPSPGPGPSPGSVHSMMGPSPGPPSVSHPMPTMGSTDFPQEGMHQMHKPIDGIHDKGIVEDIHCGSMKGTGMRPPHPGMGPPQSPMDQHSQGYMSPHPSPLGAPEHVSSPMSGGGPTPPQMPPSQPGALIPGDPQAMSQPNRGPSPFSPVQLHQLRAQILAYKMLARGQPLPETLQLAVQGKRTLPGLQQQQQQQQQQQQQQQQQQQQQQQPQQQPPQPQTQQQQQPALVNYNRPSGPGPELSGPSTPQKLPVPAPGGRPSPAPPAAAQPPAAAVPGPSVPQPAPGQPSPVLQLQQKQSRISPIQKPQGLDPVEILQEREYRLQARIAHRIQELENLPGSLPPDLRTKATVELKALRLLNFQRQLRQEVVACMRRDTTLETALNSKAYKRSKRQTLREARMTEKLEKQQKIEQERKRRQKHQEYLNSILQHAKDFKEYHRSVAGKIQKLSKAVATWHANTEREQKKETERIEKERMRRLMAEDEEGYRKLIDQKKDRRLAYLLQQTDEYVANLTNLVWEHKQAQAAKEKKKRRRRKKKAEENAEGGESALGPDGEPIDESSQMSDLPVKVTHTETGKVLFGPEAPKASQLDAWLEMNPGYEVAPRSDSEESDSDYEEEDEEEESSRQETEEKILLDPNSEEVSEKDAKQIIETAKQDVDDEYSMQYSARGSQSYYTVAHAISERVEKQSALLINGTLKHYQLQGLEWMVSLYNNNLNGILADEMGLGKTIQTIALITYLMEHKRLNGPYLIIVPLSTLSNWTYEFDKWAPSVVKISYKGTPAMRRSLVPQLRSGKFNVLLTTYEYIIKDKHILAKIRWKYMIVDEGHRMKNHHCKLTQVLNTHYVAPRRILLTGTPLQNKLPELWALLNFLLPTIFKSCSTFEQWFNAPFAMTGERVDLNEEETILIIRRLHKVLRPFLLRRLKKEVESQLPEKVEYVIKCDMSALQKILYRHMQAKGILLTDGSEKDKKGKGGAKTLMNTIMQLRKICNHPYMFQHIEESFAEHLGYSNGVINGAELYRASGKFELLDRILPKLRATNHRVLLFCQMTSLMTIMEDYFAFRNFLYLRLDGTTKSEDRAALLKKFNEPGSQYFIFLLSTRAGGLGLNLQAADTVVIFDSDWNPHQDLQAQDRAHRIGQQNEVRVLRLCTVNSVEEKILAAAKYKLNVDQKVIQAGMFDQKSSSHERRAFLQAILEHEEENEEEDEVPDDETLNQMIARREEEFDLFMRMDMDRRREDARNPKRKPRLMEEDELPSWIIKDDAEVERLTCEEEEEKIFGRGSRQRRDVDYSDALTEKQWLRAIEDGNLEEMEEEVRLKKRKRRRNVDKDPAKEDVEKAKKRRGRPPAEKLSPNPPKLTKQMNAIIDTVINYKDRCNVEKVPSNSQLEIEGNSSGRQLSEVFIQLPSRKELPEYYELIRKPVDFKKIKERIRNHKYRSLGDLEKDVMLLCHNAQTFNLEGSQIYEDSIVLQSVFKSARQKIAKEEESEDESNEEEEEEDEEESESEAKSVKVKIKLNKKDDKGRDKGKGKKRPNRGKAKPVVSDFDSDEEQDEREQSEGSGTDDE
As to the kind of experiment: In-cell Western screen of BRM degradation in SW1573 cells (Dmax and DC50). The format is cell-based. The procedure, abridged:
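SW1573 cells were treated overnight (18-20 hours) with compound at 0.1% final DMSO. They were then PFA-fixed, permeabilised with Triton X-100 and immunostained with 800 nm/680 nm secondary antibodies. BRM signal was quantified by LI-COR in-cell Western imaging to derive Dmax and DC50.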

The mark [1] stands for this setting: BRM degradation, SW1573 cells, read-out: DC50.
Setting [2] is: BRM degradation, SW1573 cells, tested at the top concentration of between 0.3 and 10 μM, read-out: Dmax (%) (% degraded).
[3] abbreviates: BRM degradation, SW1573 cells, Table 2D, read-out: **Dmax (%) (% degraded).
Setting [4] is: BRM degradation, SW1573 cells, Table 2D, read-out: *DC50.
Where [5] appears, read: SW1573, % degraded, when tested at the top concentration of between 0.3 and 10 μM, read-out: BRM Dmax (%).
Setting [6] is: target protein degradation, read-out: BRM DC50.

As to `Cc1ncsc1-c1ccc([C@H](C)NC(=O)[C@@H]2C[C@@H](O)CN2C(=O)[C@@H](c2cc(OCCN3CCC(O[C@H]4C[C@H](C#Cc5cc(N6C7CCC6CN(c6cc(-c8ccccc8O)nnc6N)C7)ccn5)C4)CC3)no2)C(C)C)cc1` [compound 216, (2S,4R)-1-((2R)-2-(3-(2-(4-((1r,3R)-3-((4-(3-(3-amino-6-(2-hydroxyphenyl)pyridazin-4-yl)-3,8-diazabicyclo[3.2.1]octan-8-yl)pyridin-2-yl)ethynyl)cyclobutoxy)piperidin-1-yl)ethoxy)isoxazol-5-yl)-3-methylbutanoyl)-4-hydroxy-N-((S)-1-(4-(4-methylthiazol-5-yl)phenyl)ethyl)pyrrolidine-2-carboxamide], the DC50 under setting [1] is less than 2.5 nM. In addition, the Dmax under setting [2] is more than 75%.

For the compound `Cc1ncoc1-c1ccc([C@H](C)NC(=O)[C@@H]2C[C@@H](O)CN2C(=O)[C@H](c2cc(OCCN3CCN(CCOc4cc(N5C6CCC5CN(c5cc(-c7ccccc7O)nnc5N)C6)ccn4)CC3)no2)C(C)C)cn1` [compound 161, (2S,4R)-1-((2S)-2-(3-(2-(4-(2-((4-(3-(3-amino-6-(2-hydroxyphenyl)pyridazin-4-yl)-3,8-diazabicyclo[3.2.1]octan-8-yl)pyridin-2-yl)oxy)ethyl)piperazin-1-yl)ethoxy)isoxazol-5-yl)-3-methylbutanoyl)-4-hydroxy-N-((S)-1-(6-(4-methyloxazol-5-yl)pyridin-3-yl)ethyl)pyrrolidine-2-carboxamide], the DC50 under setting [1] is more than 30 nM. In addition, the Dmax under setting [2] was less than 50%.

Consider `Cc1ncsc1-c1ccc([C@H](C)NC(=O)[C@@H]2C[C@@H](O)CN2C(=O)[C@H](c2cc(OC/C=C/c3ccc(O[C@H]4C[C@H](Oc5cc(N6C7CCC6CN(c6cc(-c8ccccc8O)nnc6N)C7)ccn5)C4)cn3)no2)C(C)C)cc1` [compound 186, (2S,4R)-1-((2S)-2-(3-(((E)-3-(5-((1r,3S)-3-((4-(3-(3-amino-6-(2-hydroxyphenyl)pyridazin-4-yl)-3,8-diazabicyclo[3.2.1]octan-8-yl)pyridin-2-yl)oxy)cyclobutoxy)pyridin-2-yl)allyl)oxy)isoxazol-5-yl)-3-methylbutanoyl)-4-hydroxy-N-((S)-1-(4-(4-methylthiazol-5-yl)phenyl)ethyl)pyrrolidine-2-carboxamide], for which the DC50 under setting [1] is 10 to 30 nM. Also, the maximal degradation (Dmax) under setting [2] was more than 75%.

Take `Cc1ncsc1-c1ccc([C@H](C)NC(=O)[C@@H]2C[C@@H](O)CN2C(=O)[C@@H](c2cc(OCC[C@H]3CCN(C[C@H]4C[C@H](Oc5cc(N6C7CCC6CN(c6cc(-c8ccccc8O)nnc6N)C7)ccn5)C4)C[C@@H]3C)no2)C(C)C)cc1` (racemic) [compound 577, (2S,4R)-1-((2R)-2-(3-(2-((3R,4R)-1-(((1r,3R)-3-((4-(3-(3-amino-6-(2-hydroxyphenyl)pyridazin-4-yl)-3,8-diazabicyclo[3.2.1]octan-8-yl)pyridin-2-yl)oxy)cyclobutyl)methyl)-3-methylpiperidin-4-yl)ethoxy)isoxazol-5-yl)-3-methylbutanoyl)-4-hydroxy-N-((S)-1-(4-(4-methylthiazol-5-yl)phenyl)ethyl)pyrrolidine-2-carboxamide]: the Dmax under setting [3] is more than 75%. Further, the half-maximal degradation concentration (DC50) under setting [4] is less than 2.5 nM.

In the case of `Cc1ncsc1-c1ccc([C@H](C)NC(=O)[C@@H]2C[C@@H](O)CN2C(=O)[C@H](c2cc(OCCN3CCC(OC4CN(c5cc(N6C7CCC6CN(c6cc(-c8ccccc8O)nnc6N)C7)ccn5)C4)CC3)no2)C(C)C)cc1` [compound 354, (2S,4R)-1-((2S)-2-(3-(2-(4-((1-(4-(3-(3-amino-6-(2-hydroxyphenyl)pyridazin-4-yl)-3,8-diazabicyclo[3.2.1]octan-8-yl)pyridin-2-yl)azetidin-3-yl)oxy)piperidin-1-yl)ethoxy)isoxazol-5-yl)-3-methylbutanoyl)-4-hydroxy-N-((S)-1-(4-(4-methylthiazol-5-yl)phenyl)ethyl)pyrrolidine-2-carboxamide], the greatest degradation seen (Dmax) under setting [5] was more than 75%. The DC50 under setting [6] lay in the range of 2.5 to 10 nM.

With `Cc1ncsc1-c1ccc([C@H](C)NC(=O)[C@@H]2C[C@@H](O)CN2C(=O)[C@@H](c2cc(OCCN3CCC(O[C@H]4C[C@H](C#C[C@H](C)n5cc(-c6cc(-c7ccccc7O)nnc6N)cn5)C4)CC3)no2)C(C)C)cc1` [compound 415, (2S,4R)-1-((R)-2-(3-(2-(4-((1S,3R)-3-((S)-3-(4-(3-amino-6-(2-hydroxyphenyl)pyridazin-4-yl)-1H-pyrazol-1-yl)but-1-yn-1-yl)cyclobutoxy)piperidin-1-yl)ethoxy)isoxazol-5-yl)-3-methylbutanoyl)-4-hydroxy-N-((S)-1-(4-(4-methylthiazol-5-yl)phenyl)ethyl)pyrrolidine-2-carboxamide], the Dmax under setting [5] was more than 75%. The DC50 (degradation of BRM, read-out: BRM DC50) is less than 2.5 nM.

In the case of `Cc1ncsc1-c1ccc([C@H](C)NC(=O)[C@@H]2C[C@@H](O)CN2C(=O)[C@H](c2cc(OC[C@@H]3C[C@H]3c3ccc(O[C@H]4C[C@H](Oc5cc(N6C7CCC6CN(c6cc(-c8ccccc8O)nnc6N)C7)ccn5)C4)cn3)no2)C(C)C)cn1` [compound 479, (2S,4R)-1-((2S)-2-(3-(((1R,2R)-2-(5-((1r,3R)-3-((4-(3-(3-amino-6-(2-hydroxyphenyl)pyridazin-4-yl)-3,8-diazabicyclo[3.2.1]octan-8-yl)pyridin-2-yl)oxy)cyclobutoxy)pyridin-2-yl)cyclopropyl)methoxy)isoxazol-5-yl)-3-methylbutanoyl)-4-hydroxy-N-((S)-1-(6-(4-methylthiazol-5-yl)pyridin-3-yl)ethyl)pyrrolidine-2-carboxamide], the DC50 under setting [6] was more than 30 nM.

Turning to `Cc1ncsc1-c1ccc([C@H](CCCC(N)=O)NC(=O)[C@@H]2C[C@@H](O)CN2C(=O)[C@@H](c2cc(OCCN3CCC(O[C@H]4C[C@H](Oc5cc(N6C7CCC6CN(c6cc(-c8ccccc8O)nnc6N)C7)ccn5)C4)CC3)no2)C(C)C)cc1` [compound 556, (2S,4R)-N-((S)-5-amino-1-(4-(4-methylthiazol-5-yl)phenyl)-5-oxopentyl)-1-((2R)-2-(3-(2-(4-((1r,3R)-3-((4-(3-(3-amino-6-(2-hydroxyphenyl)pyridazin-4-yl)-3,8-diazabicyclo[3.2.1]octan-8-yl)pyridin-2-yl)oxy)cyclobutoxy)piperidin-1-yl)ethoxy)isoxazol-5-yl)-3-methylbutanoyl)-4-hydroxypyrrolidine-2-carboxamide], the Dmax under setting [3] was more than 75%. The DC50 under setting [4] is less than 2.5 nM.

As for `Cc1ncsc1-c1ccc([C@H](C)NC(=O)[C@@H]2C[C@@H](O)CN2C(=O)[C@H](c2onc(OCCN3CCC(O[C@H]4C[C@H](Oc5cc(N6C7CCC6CN(c6cc(-c8ccccc8O)nnc6N)C7)ccn5)C4)CC3)c2Cl)C(C)C)cn1` [compound 222, (2S,4R)-1-((2S)-2-(3-(2-(4-((1r,3S)-3-((4-(3-(3-amino-6-(2-hydroxyphenyl)pyridazin-4-yl)-3,8-diazabicyclo[3.2.1]octan-8-yl)pyridin-2-yl)oxy)cyclobutoxy)piperidin-1-yl)ethoxy)-4-chloroisoxazol-5-yl)-3-methylbutanoyl)-4-hydroxy-N-((S)-1-(6-(4-methylthiazol-5-yl)pyridin-3-yl)ethyl)pyrrolidine-2-carboxamide], the DC50 under setting [1] is more than 30 nM.

In the case of `Cc1n[nH]c(C)c1-c1ccc([C@H](C)NC(=O)[C@@H]2C[C@@H](O)CN2C(=O)[C@H](c2cc(OCCN3CCC(O[C@H]4C[C@H](Oc5cc(N6C7CCC6CN(c6cc(-c8ccccc8O)nnc6N)C7)ccn5)C4)CC3)no2)C(C)C)cc1` [compound 377, (2S,4R)-1-((2S)-2-(3-(2-(4-((1r,3S)-3-((4-(3-(3-amino-6-(2-hydroxyphenyl)pyridazin-4-yl)-3,8-diazabicyclo[3.2.1]octan-8-yl)pyridin-2-yl)oxy)cyclobutoxy)piperidin-1-yl)ethoxy)isoxazol-5-yl)-3-methylbutanoyl)-N-((S)-1-(4-(3,5-dimethyl-1H-pyrazol-4-yl)phenyl)ethyl)-4-hydroxypyrrolidine-2-carboxamide], under setting [5], the Dmax is more than 75%. Under setting [6], the DC50 lay within 10 to 30 nM.

For `CCOC[C@H](NC(=O)[C@@H]1C[C@@H](O)CN1C(=O)[C@H](c1cc(OCCN2CCN(CCOc3cc(N4C5CCC4CN(c4cc(-c6ccccc6O)nnc4N)C5)ccn3)CC2)no1)C(C)C)c1ccc(-c2scnc2C)cc1` [compound 257, (2S,4R)-1-((2S)-2-(3-(2-(4-(2-((4-(3-(3-amino-6-(2-hydroxyphenyl)pyridazin-4-yl)-3,8-diazabicyclo[3.2.1]octan-8-yl)pyridin-2-yl)oxy)ethyl)piperazin-1-yl)ethoxy)isoxazol-5-yl)-3-methylbutanoyl)-N-((R)-2-ethoxy-1-(4-(4-methylthiazol-5-yl)phenyl)ethyl)-4-hydroxypyrrolidine-2-carboxamide], under setting [1], the 50% degradation concentration (DC50) was in the range of 2.5 to 10 nM. Besides, the Dmax under setting [2] is more than 75%.

As to `Cc1ncsc1-c1ccc([C@H](C)NC(=O)[C@@H]2C[C@@H](O)CN2C(=O)[C@@H](c2cc(OCCN3CCN(CCOc4cc(N5C6CCC5CN(c5cc(-c7ccccc7O)nnc5N)C6)ccn4)CC3)no2)C(C)C)cn1` [compound 116, (2S,4R)-1-((2R)-2-(3-(2-(4-(2-((4-(3-(3-amino-6-(2-hydroxyphenyl)pyridazin-4-yl)-3,8-diazabicyclo[3.2.1]octan-8-yl)pyridin-2-yl)oxy)ethyl)piperazin-1-yl)ethoxy)isoxazol-5-yl)-3-methylbutanoyl)-4-hydroxy-N-((S)-1-(6-(4-methylthiazol-5-yl)pyridin-3-yl)ethyl)pyrrolidine-2-carboxamide], the DC50 under setting [1] is less than 2.5 nM. For the same compound, the Dmax (BRM degradation, SW1573 cells, when tested at the top concentration of between 0.3 and 10 μM, read-out: Dmax (%) (% degraded)) was more than 75%.
